Data taken from US11746116B2, “Antibiotic resistance breakers” (KING'S COLLEGE LONDON, priority 2017, dated 2023).
Values after ≈ are worked out from the molar mass of the structure shown. Where two headings read alike, the source gives them in different places.

Columns and labels:
Experiment in all cases: MIC, microdilution broth method
AYE = type: cell-based, Acinetobacter baumannii; details: for MIC, AYE: ESKAPE panel, Gram-negative
M6 = type: cell-based; details: for MIC, M6: ESKAPE panel, Gram-negative
MSSA9144 = type: cell-based, Staphylococcus aureus; details: for MIC, MSSA9144: ESKAPE panel, Gram-positive
Ab17978 = type: cell-based; details: for MIC, Ab17978: ESKAPE panel, Gram-negative
VRE12201 = type: cell-based, Enterococcus faecalis; details: for MIC, VRE12201: ESKAPE panel, Gram-positive
EMRSA16 = type: cell-based, Staphylococcus aureus
VSE775 = type: cell-based, Enterococcus faecalis; parameters: MIC, VSE775: unit not given beside the values; details: for MIC, VSE775: ESKAPE panel, Gram-positive
VRE12204 = type: cell-based, Enterococcus faecium; details: in µg/mL; for MIC: VRE12204; for MIC, VRE12204: ESKAPE panel, Gram-positive
KP13368 = type: cell-based; details: for MIC, KP13368: ESKAPE panel, Gram-negative
PA01 = type: cell-based, Pseudomonas aeruginosa; details: for MIC, PA01: ESKAPE panel, Gram-negative
EC12923 = type: cell-based; details: for MIC, EC12923: ESKAPE panel, Gram-negative
EMRSA15 = type: cell-based, Staphylococcus aureus
PA13437 = type: cell-based; details: for MIC: PA13437
[1] = AYE, Normal (no PMBN), in µg/mL
[2] = Ab17978, Normal (no PMBN), in µg/mL
[3] = Klebsiella pneumoniae (KP13368), Gram-Negative, read-out: MIC
[4] = Pseudomonas aeruginosa (PA01), Gram-Negative, read-out: MIC
[5] = Klebsiella pneumoniae (M6), Gram-Negative, read-out: MIC
[6] = Staphylococcus aureus (MSSA9144), Gram-Positive, read-out: MIC
[7] = Acinetobacter baumannii (AB17978), Gram-Negative, read-out: MIC
[8] = Escherichia coli (EC12923), Gram-Negative, read-out: MIC
[9] = ESKAPE panel, Gram-positive, in µg/mL
[10] = Staphylococcus aureus, Staphylococcus aureus (EMRSA15), Gram-Positive (Table 14), read-out: MIC
[11] = Enterococcus faecalis, Enterococcus (VRE12201), Gram-Positive, read-out: MIC
[12] = Staphylococcus aureus (EMRSA16), Gram-Positive (Table 14), read-out: MIC
[13] = Enterococcus faecalis, Enterococcus (VRE775), Gram-Positive, read-out: MIC
[14] = KP13368, Normal (no PMBN), in µg/mL
[15] = PA01, Normal (no PMBN), in µg/mL

Structure (SMILES)	MIC (AYE; [1])	MIC (M6; M6, Normal (no PMBN), in µg/mL)	MIC (MSSA9144; MSSA9144, in µg/mL)	MIC (Ab17978; [2])	MIC (VRE12201; VRE12201, in µg/mL)	MIC (EMRSA16; EMRSA16, in µg/mL)	MIC (VSE775; VSE775, in µg/mL)	MIC (VRE12204)	MIC, KP13368 (KP13368)	MIC, PA01 (PA01; in µg/mL)	MIC, M6 (M6; in µg/mL)	MIC, Ab17978 (Ab17978; in µg/mL)	MIC, EC12923 (EC12923; in µg/mL)	MIC, EMRSA15 (EMRSA15; [9])	MIC, EMRSA16 (EMRSA16; [9])	MIC, VSE775 (VSE775)	MIC, VRE12204 (VRE12204)	MIC (EMRSA15; EMRSA15, in µg/mL)	MIC (KP13368; [14])	MIC (PA01; [15])	further results
O=C(O)c1cn(C2CC2)c2cc(N3CCN(Cc4ccccc4)CC3)c(F)cc2c1=O [ML-77-046]	64-128	2	0.12-0.25	0.25	1-2	32	2-4	4-8													
C[C@H]1COc2c(N3CC[C@@H](Nc4cnccn4)C3)c(F)cc3c(=O)c(C(=O)O)cn1c23 [KSN-BL1, (S)-9-fluoro-3-methyl-7-oxo-10-((R)-3-(pyrazin-2-ylamino)pyrrolidin-1-yl)-2,3-dihydro-7H-[1,4]oxazino[2,3,4-ij]quinoline-6-carboxylic acid]									8 µg/mL (≈ 18.8 µM)	4	0.5	0.25	0.25-0.5	1	1	≤0.125	0.5				MIC (KP13368; [3]): 8 µg/mL (≈ 18.8 µM); MIC (PA01; [4]): 4 µg/mL (≈ 9.4 µM); MIC (AYE; Acinetobacter baumannii (AYE), Gram-Negative, read-out: MIC): 8 µg/mL (≈ 18.8 µM); MIC, AYE (AYE; in µg/mL): 8; MIC (M6; [5]): 0 to 5 µg/mL; MIC, MSSA9144 (MSSA9144; in µg/mL): ≤0.125; MIC (MSSA9144; [6]): ≤ 0.125 µg/mL; MIC (Ab17978; [7]): 0.25 µg/mL (≈ 0.588 µM); MIC (EC12923; [8]): 0.25 µg/mL (≈ 0.588 µM); MIC, EMRSA15 (EMRSA15; EMRSA15 (Table 16, role of the terminal pyrimidine ring), in µg/mL): 1; MIC (EMRSA15; [10]): 1 µg/mL (≈ 2.35 µM); MIC, VRE12201 (VRE12201; in µg/mL): ≤0.125; MIC (VRE12201; [11]): ≤ 0.125 µg/mL; MIC, EMRSA16 (EMRSA16; EMRSA16 (Table 16, role of the terminal pyrimidine ring), in µg/mL): 1; MIC (EMRSA16; [12]): 1 µg/mL (≈ 2.35 µM); MIC (VSE775; [13]): ≤ 0.125 µg/mL
C[C@H]1COc2c(N3CCN(c4ncc(F)cn4)CC3)c(F)cc3c(=O)c(C(=O)O)cn1c23 [ML-83-010]									32 µg/mL (≈ 72.2 µM)	64	4	2	2	2	2	< 0.125 - 0.5	1-4				MIC (KP13368; [3]): 32 µg/mL (≈ 72.2 µM); MIC (PA01; [4]): 64 µg/mL (≈ 144 µM); MIC (M6; [5]): 4 µg/mL (≈ 9.02 µM); MIC (MSSA9144; [6]): ≤ 0.125 µg/mL; MIC (Ab17978; [7]): 2 µg/mL (≈ 4.51 µM); MIC (EC12923; [8]): 2 µg/mL (≈ 4.51 µM); MIC (EMRSA15; [10]): 2 µg/mL (≈ 4.51 µM); MIC (VRE12201; [11]): ≤ 0.125 µg/mL; MIC (EMRSA16; [12]): 2 µg/mL (≈ 4.51 µM); MIC (VSE775; [13]): 0.5 µg/mL (≈ 1.13 µM)
O=C(O)c1cn(C2CC2)c2cc(N3CCN(Cc4ccc(CO)cc4)CC3)c(F)cc2c1=O [ML-77-147]	16-32	0.5-1	<0.12	0.25-0.5	0.5	8	1											8			
CCn1cc(C(=O)O)c(=O)c2cc(F)c(N3CCN(Cc4cc(=O)[nH]c5ccccc45)CC3)cc21 [ML-77-059]	>32	16	16-32	32	>32	>32	>32	>32										>32	>32	>32	MIC (PA13437; Normal (no PMBN)): > 32 µg/mL
C[C@H]1COc2c(N3CCN(c4ccncn4)CC3)c(F)cc3c(=O)c(C(=O)O)cn1c23 [ML-83-001, (S)-9-fluoro-3-methyl-7-oxo-10-(4-(pyrimidin-4-yl)piperazin-1-yl)-2,3-dihydro-7H-[1,4]oxazino[2,3,4-ij]quinoline-6-carboxylic acid]		8	0.06	4	0.25	4	0.25	2										4	64	32	MIC (KP13368; KP13368, +PMBN, in µg/mL): 4; MIC (PA01; PA01, +PMBN, in µg/mL): 1; MIC (AYE; AYE, +PMBN, in µg/mL): 64; MIC (M6; M6, +PMBN, in µg/mL): 0.5; MIC (Ab17978; Ab17978, +PMBN, in µg/mL): 1; MIC (PA13437; +PMBN): 32 µg/mL (≈ 75.2 µM)
C[C@H]1COc2c(N3CCC(Nc4ncccn4)C3)c(F)cc3c(=O)c(C(=O)O)cn1c23 (stereo partly drawn) [Compound 82-KSN-L7, (3S)-9-fluoro-3-methyl-7-oxo-10-(3-(pyrimidin-2-ylamino)-pyrrolidin-1-yl)-2,3-dihydro-7H-[1,4]oxazino[2,3,4-ij]quinoline-6-carboxylic acid]	64	2-4	≤0.125-4	1	0.5	4	1-2	4										4	16	16	MIC (EC12923; EC12923, in µg/mL): 1
C[C@H]1COc2c(N3CCCN(c4cnccn4)CC3)c(F)cc3c(=O)c(C(=O)O)cn1c23 [ML-83-041 (5.16), (S)-9-fluoro-3-methyl-7-oxo-10-(4-(pyrazin-2-yl)-1,4-diazepan-1-yl)-2,3-dihydro-7H-[1,4]oxazino[2,3,4-ij]quinoline-6-carboxylic acid]	64-128	2	≤0.125	1	0.5-1	8	1	4										4-8	16-32	16-32	MIC (EC12923; EC12923, in µg/mL): 1-2
C[C@H]1COc2c(N3CC[C@H](Nc4ncc(N)cn4)C3)c(F)cc3c(=O)c(C(=O)O)cn1c23 [KSN-L62, (S)-10-((S)-3-((5-aminopyrimidin-2-yl)amino)pyrrolidin-1-yl)-9-fluoro-3-methyl-7-oxo-2,3-dihydro-7H-[1,4]oxazino[2,3,4-ij]quinoline-6-carboxylic acid]									16 µg/mL (≈ 36.3 µM)	8	1	0.25	1	1	4	≤0.125	1				MIC, AYE (AYE; in µg/mL): 4; MIC, MSSA9144 (MSSA9144; in µg/mL): ≤0.125; MIC, VRE12201 (VRE12201; in µg/mL): ≤0.125
C[C@H]1COc2c(N3CCN(c4ccccn4)CC3)c(F)cc3c(=O)c(C(=O)O)cn1c23 [ML-83-0018, (S)-9-fluoro-3-methyl-7-oxo-w-(4-(pyridin-2-yl)piperazin-1-yl)-2,3-dihydro-7H-[1,4]oxazino[2,3,4-ij]quinoline-6-carboxylic acid]		8	≤0.12	2	0.25	8	0.25-0.5	2										4	32	64	MIC (EC12923; EC12923, in µg/mL): 2-4
O=C(O)c1cn(C2CC2)c2cc(N3CCN(Cc4cccc5c4OCO5)CC3)c(F)cc2c1=O [ML-77-032]	64	2	0.25-1	0.25	1	64	2													16	
C[C@H]1COc2c(N3CCC(N4CCOCC4)C3)c(F)cc3c(=O)c(C(=O)O)cn1c23 (stereo partly drawn) [KSN-L33, (3S)-9-fluoro-3-methyl-10-(3-morpholinopyrrolidin-1-yl)-7-oxo-2,3-dihydro-7H-[1,4]oxazino[2,3,4-ij]quinoline-6-carboxylic acid]									32 µg/mL (≈ 76.7 µM)	32-64	8	2	2	16	16-32	4	4				MIC, MSSA9144 (MSSA9144; in µg/mL): 0.25; MIC, VRE12201 (VRE12201; in µg/mL): 2
C[C@H]1COc2c(N3CC[C@@H](N)C3)c(F)cc3c(=O)c(C(=O)O)cn1c23 [KSN-L44-D, (S)-10-((R)-3-aminopyrrolidin-1-yl)-9-fluoro-3-methyl-7-oxo-2,3-dihydro-7H-[1,4]oxazino[2,3,4-ij]quinoline-6-carboxylic acid]									4 µg/mL (≈ 11.5 µM)	0.25-0.5	≤0.125	2	≤0.125	32	32	1-4	1				MIC, MSSA9144 (MSSA9144; in µg/mL): 0.25; MIC, PA13437 (PA13437; ESKAPE panel, Gram-negative): 32 µg/mL (≈ 92.1 µM); MIC, VRE12201 (VRE12201; in µg/mL): 0.5-1
